In article PMC8037182, “Solvothermal Synthesis of Multiple Dihydropyrimidinones at a Time as Inhibitors of Eg5” (Molecules, 2021):

Legend:
[1] = test system: Hela cell line; assay: Cytotoxicity MTS assay, Hela cell line; type: cell-based; settings: for OD490 Mean / OD490 Well 1 / OD490 Well 2 / OD490 Well 3: Hela cell line
Summary of the method: (§1)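 Cells were seeded at 1000 per well, allowed 24 h, then exposed to compounds at final concentrations of 0.5 to 100 µM for 24 h, with 0.025% DMSO as blank. MTS reagent was added for 2 h at 37 °C and absorbance read at 490 nm. IC50 came from non-linear regression of viability against concentration.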

[2] = test system: T24 cell line; assay: Cytotoxicity MTS assay, T24 cell line; type: cell-based; settings: for OD490 Mean / OD490 Well 1 / OD490 Well 2 / OD490 Well 3: T24 cell line, first assay;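 for OD490 Mean: blank control wells received 0.025% DMSO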;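 for OD490 Well 1: blank control wells received 0.025% DMSO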;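 for OD490 Well 2: blank control wells received 0.025% DMSO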;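 for OD490 Well 3: blank control wells received 0.025% DMSO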
Summary of the method: as §1

`COC(=O)c1[nH]c(C2NC(=S)NC(C)=C2C(=O)c2ccccc2)c(C(=O)OC)c1C` (centres unmarked) [D14] was tested, and the “OD490 Mean” value ([1]; 0.5μM, first assay) was 2.3692, the “OD490 Well 1” value ([1]; 0.5μM, first assay) was 2.2024 and the “OD490 Well 2” value ([1]; 0.5μM, first assay) was 2.5165. For the same molecule, the “OD490 Well 3” value ([1]; 0.5μM, first assay) was 2.3887, the “OD490 Mean” value ([1]; 0.5μM, second assay) was 2.4577 and the “OD490 Well 1” value ([1]; 0.5μM, second assay) was 2.5398. For the same molecule, the “OD490 Well 2” value ([1]; 0.5μM, second assay) was 2.4478, the “OD490 Well 3” value ([1]; 0.5μM, second assay) was 2.3854 and the “OD490 Mean” value ([1]; 0.5μM, third assay) was 2.5210. For the same molecule, the “OD490 Well 1” value ([1]; 0.5μM, third assay) was 2.5365, the “OD490 Well 2” value ([1]; 0.5μM, third assay) was 2.6899 and the “OD490 Well 3” value ([1]; 0.5μM, third assay) was 2.3365. The “OD490 Mean” value ([1]; 1μM, first assay) was 2.4838, the “OD490 Well 1” value ([1]; 1μM, first assay) was 2.3561 and the “OD490 Well 2” value ([1]; 1μM, first assay) was 2.5456. The “OD490 Well 3” value ([1]; 1μM, first assay) was 2.5498, the “OD490 Mean” value ([1]; 1μM, second assay) was 2.4907 and the “OD490 Well 1” value ([1]; 1μM, second assay) was 2.5353. For the same molecule, the “OD490 Well 2” value ([1]; 1μM, second assay) was 2.4889, the “OD490 Well 3” value ([1]; 1μM, second assay) was 2.4478 and the “OD490 Mean” value ([1]; 1μM, third assay) was 2.5269. The “OD490 Well 1” value ([1]; 1μM, third assay) was 2.4563, the “OD490 Well 2” value ([1]; 1μM, third assay) was 2.5587 and the “OD490 Well 3” value ([1]; 1μM, third assay) was 2.5656. For the same molecule, the “OD490 Mean” value ([1]; 10μM, first assay) was 2.5226, the “OD490 Well 1” value ([1]; 10μM, first assay) was 2.5006 and the “OD490 Well 2” value ([1]; 10μM, first assay) was 2.6290. The “OD490 Well 3” value ([1]; 10μM, first assay) was 2.4381, the “OD490 Mean” value ([1]; 10μM, second assay) was 2.5413 and the “OD490 Well 1” value ([1]; 10μM, second assay) was 2.4987. The “OD490 Well 2” value ([1]; 10μM, second assay) was 2.5687, the “OD490 Well 3” value ([1]; 10μM, second assay) was 2.5565 and the “OD490 Mean” value ([1]; 10μM, third assay) was 2.5164. The “OD490 Well 1” value ([1]; 10μM, third assay) was 2.5321, the “OD490 Well 2” value ([1]; 10μM, third assay) was 2.4598 and the “OD490 Well 3” value ([1]; 10μM, third assay) was 2.5574. The “OD490 Mean” value ([1]; 25μM, first assay) was 2.4708, the “OD490 Well 1” value ([1]; 25μM, first assay) was 2.2633 and the “OD490 Well 2” value ([1]; 25μM, first assay) was 2.6154. For the same molecule, the “OD490 Well 3” value ([1]; 25μM, first assay) was 2.5338, the “OD490 Mean” value ([1]; 25μM, second assay) was 2.5615 and the “OD490 Well 1” value ([1]; 25μM, second assay) was 2.5835. The “OD490 Well 2” value ([1]; 25μM, second assay) was 2.5478, the “OD490 Well 3” value ([1]; 25μM, second assay) was 2.5532 and the “OD490 Mean” value ([1]; 25μM, third assay) was 2.4824. For the same molecule, the “OD490 Well 1” value ([1]; 25μM, third assay) was 2.3365, the “OD490 Well 2” value ([1]; 25μM, third assay) was 2.4587 and the “OD490 Well 3” value ([1]; 25μM, third assay) was 2.6521. The “OD490 Mean” value ([1]; 50μM, first assay) was 2.7660, the “OD490 Well 1” value ([1]; 50μM, first assay) was 2.6176 and the “OD490 Well 2” value ([1]; 50μM, first assay) was 2.8052. The “OD490 Well 3” value ([1]; 50μM, first assay) was 2.8752, the “OD490 Mean” value ([1]; 50μM, second assay) was 2.6584 and the “OD490 Well 1” value ([1]; 50μM, second assay) was 2.6324. For the same molecule, the “OD490 Well 2” value ([1]; 50μM, second assay) was 2.5687, the “OD490 Well 3” value ([1]; 50μM, second assay) was 2.7741 and the “OD490 Mean” value ([1]; 50μM, third assay) was 2.5680. For the same molecule, the “OD490 Well 1” value ([1]; 50μM, third assay) was 2.5574, the “OD490 Well 2” value ([1]; 50μM, third assay) was 2.4768 and the “OD490 Well 3” value ([1]; 50μM, third assay) was 2.6698. For the same molecule, the “OD490 Mean” value ([1]; 100μM, first assay) was 2.5211, the “OD490 Well 1” value ([1]; 100μM, first assay) was 2.7163 and the “OD490 Well 2” value ([1]; 100μM, first assay) was 2.4550. The “OD490 Well 3” value ([1]; 100μM, first assay) was 2.3919, the “OD490 Mean” value ([1]; 100μM, second assay) was 2.5251 and the “OD490 Well 1” value ([1]; 100μM, second assay) was 2.6987. For the same molecule, the “OD490 Well 2” value ([1]; 100μM, second assay) was 2.4465, the “OD490 Well 3” value ([1]; 100μM, second assay) was 2.4301 and the “OD490 Mean” value ([1]; 100μM, third assay) was 2.6068. The “OD490 Well 1” value ([1]; 100μM, third assay) was 2.6689, the “OD490 Well 2” value ([1]; 100μM, third assay) was 2.5641 and the “OD490 Well 3” value ([1]; 100μM, third assay) was 2.5874. The IC50 ([1]; MTS assay, 24 h exposure) was > 150 µM, the IC50 ([2]; MTS assay, 24 h exposure) was > 150 µM and the “OD490 Mean” value ([2]; 0.5μM) was 1.1342. The “OD490 Well 1” value ([2]; 0.5μM) was 1.0996, the “OD490 Well 2” value ([2]; 0.5μM) was 1.1541 and the “OD490 Well 3” value ([2]; 0.5μM) was 1.1489. For the same molecule, the “OD490 Mean” value ([2]; 1μM) was 1.3301, the “OD490 Well 1” value ([2]; 1μM) was 1.2266 and the “OD490 Well 2” value ([2]; 1μM) was 1.4478. For the same molecule, the “OD490 Well 3” value ([2]; 1μM) was 1.3160, the “OD490 Mean” value ([2]; 10μM) was 1.2661 and the “OD490 Well 1” value ([2]; 10μM) was 1.2502. For the same molecule, the “OD490 Well 2” value ([2]; 10μM) was 1.2630, the “OD490 Well 3” value ([2]; 10μM) was 1.2850 and the “OD490 Mean” value ([2]; 25μM) was 1.2456. The “OD490 Well 1” value ([2]; 25μM) was 1.2555, the “OD490 Well 2” value ([2]; 25μM) was 1.2167 and the “OD490 Well 3” value ([2]; 25μM) was 1.2646. The “OD490 Mean” value ([2]; 50μM) was 1.2309, the “OD490 Well 1” value ([2]; 50μM) was 1.2932 and the “OD490 Well 2” value ([2]; 50μM) was 1.1700. The “OD490 Well 3” value ([2]; 50μM) was 1.2295, the “OD490 Mean” value ([2]; 100μM) was 1.4227 and the “OD490 Well 1” value ([2]; 100μM) was 1.3732. The “OD490 Well 2” value ([2]; 100μM) was 1.4320 and the “OD490 Well 3” value ([2]; 100μM) was 1.4629.
